Experimental data published in PMC6865181, “Role of L-Type Amino Acid Transporter 1 (LAT1) for the Selective Cytotoxicity of Sesamol in Human Melanoma Cells” (Molecules, 2019).
Marks after values point to notes of the source that are not given here.

Assays:
[1] = biological target: T1, LAT1 (Homo sapiens, UniProt Q01650); test: LAT1 function: competitive uptake of L-dopa in SK-MEL-2 cells; format: cell-based; details: for Percent Inhibition of L-Dopa Distribution Volume: competitor (BCH, L-tyrosine, sesamol 1 mM; L-leucine, L-alanine 2 mM; melphalan 0.05 mM); for L-Dopa Distribution Volume in presence of the compound: competitor at the concentration printed in the row
T1 sequence (Q01650 whole entry): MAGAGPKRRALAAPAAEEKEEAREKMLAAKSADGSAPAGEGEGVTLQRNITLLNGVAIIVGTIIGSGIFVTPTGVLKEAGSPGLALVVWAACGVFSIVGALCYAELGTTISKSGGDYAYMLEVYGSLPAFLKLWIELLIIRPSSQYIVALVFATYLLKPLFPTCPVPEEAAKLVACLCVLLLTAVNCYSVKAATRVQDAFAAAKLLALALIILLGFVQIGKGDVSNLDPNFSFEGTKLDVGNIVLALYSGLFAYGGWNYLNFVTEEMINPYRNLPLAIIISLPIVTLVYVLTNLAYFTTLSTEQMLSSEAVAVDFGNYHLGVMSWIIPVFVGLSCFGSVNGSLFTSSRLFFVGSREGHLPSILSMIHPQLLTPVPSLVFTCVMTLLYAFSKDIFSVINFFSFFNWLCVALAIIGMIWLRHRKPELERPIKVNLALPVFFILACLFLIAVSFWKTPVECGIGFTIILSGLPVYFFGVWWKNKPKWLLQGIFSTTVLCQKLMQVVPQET
T1 sequence (P08195 102-630 partner): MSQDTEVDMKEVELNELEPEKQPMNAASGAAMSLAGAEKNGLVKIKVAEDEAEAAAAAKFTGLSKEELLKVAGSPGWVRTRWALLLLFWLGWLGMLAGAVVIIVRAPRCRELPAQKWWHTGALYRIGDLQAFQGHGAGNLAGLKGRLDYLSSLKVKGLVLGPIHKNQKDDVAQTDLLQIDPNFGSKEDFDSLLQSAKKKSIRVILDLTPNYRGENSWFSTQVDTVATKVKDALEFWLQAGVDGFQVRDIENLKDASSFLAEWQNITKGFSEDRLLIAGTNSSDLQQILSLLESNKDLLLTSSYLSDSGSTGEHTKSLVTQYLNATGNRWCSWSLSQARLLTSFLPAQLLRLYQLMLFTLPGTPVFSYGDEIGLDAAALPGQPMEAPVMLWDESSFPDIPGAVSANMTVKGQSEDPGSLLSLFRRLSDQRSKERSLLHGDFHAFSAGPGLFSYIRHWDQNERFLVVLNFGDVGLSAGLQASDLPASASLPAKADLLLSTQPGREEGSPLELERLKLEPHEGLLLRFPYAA
Description: (§1) SK-MEL-2 and Vero cells were seeded separately into 24-well plates at 2 × 10^5 cells/well for 24 h. The media was removed, and the cells pre-incubated with HBSS pH 7.4 for 10 min. The cells were used for the following experiments.
(§2) Sesamol was also investigated for its affinity to LAT1. […] Competitive uptake was performed for 10 min then the cells were washed twice with ice-cold PBS. The L-dopa was solubilized by 0.1 M HCl and the cell lysate (25 µL) was pipetted for protein determination. […] Intracellular and extracellular L-dopa was quantified by the HPLC assay. The L-dopa uptake was represented as the distribution volume of L-dopa in a cell to media ratio (C/M ratio) as calculated in Section 4.3.1.
The analysis was based on a BDS Hypersil C-18 column, (4.6 × 250 mm, 5 µm packing, Thermo Fisher Scientific, Waltham, MA, USA). The column temperature was set at 30 °C with a flow rate of 0.8 mL/min. The mobile phase for sesamol quantification was 70% methanol in water, vs. 20% methanol in water for L-dopa. […] The validated sesamol quantification conducted using sesamol spiked cell lysate with high selectivity and clear separation from the endogenous cell lysate as previously reported. The % bias and % precision was determined within and between days, each was maintained below 6%.

[2] = test system: LAT1; details: Vero cells, sesamol 0.1 mM, 10 min; for Percent Inhibition of Sesamol Distribution Volume: competitor at the concentration (BCH, L-tyrosine, L-dopa 1 mM; L-leucine, L-alanine 2 mM; melphalan 0.05 mM); for Sesamol Distribution Volume in presence of the compound: competitor at the concentration printed in the row
Description: as §1
(§3) Competitive inhibition of uptake of sesamol was done in both SK-MEL-2 and the Vero cells. […] The cells were washed twice with ice-cold PBS, solubilized in methanol, and centrifuged at 2400× g, at 4 °C for 20 min. The precipitated protein was re-solubilized by 0.1 M NaOH prior to protein determination. The sesamol content was quantified using HPLC assay. The cellular uptake of sesamol was calculated as per the C/M ratio.
(§4) Quantitative analysis of sesamol and L-dopa were performed using a Shimadzu HPLC (LC-2030C-3D) with a UV photodiode array detector (DAD) (Kyoto, Japan). The analysis was based on a BDS Hypersil C-18 column, (4.6 × 250 mm, 5 µm packing, Thermo Fisher Scientific, Waltham, MA, USA). The column temperature was set at 30 °C with a flow rate of 0.8 mL/min. The mobile phase for sesamol quantification was 70% methanol in water, vs. 20% methanol in water for L-dopa. The respective detection wavelength and elution time for sesamol and L-dopa was 297 nm and 280 nm and 4.2 and 4.5 min. The validated sesamol quantification conducted using sesamol spiked cell lysate with high selectivity and clear separation from the endogenous cell lysate as previously reported. The % bias and % precision was determined within and between days, each was maintained below 6%.

[3] = biological target: T1, LAT1; test: cell-based; details: for Percent Inhibition of Sesamol Distribution Volume / Sesamol Distribution Volume in presence of the compound: SK-MEL-2, sesamol 0.1 mM, 10 min; for Percent Inhibition of Sesamol Distribution Volume: competitor at the concentration (BCH, L-tyrosine, L-dopa 1 mM; L-leucine, L-alanine 2 mM; melphalan 0.05 mM); for Sesamol Distribution Volume in presence of the compound: competitor at the concentration printed in the row
Description: as §1, §3, §4

[4] = test system: LAT1; test: LAT1 function: competitive uptake of L-dopa in Vero cells; format: cell-based, African green monkey; details: L-dopa 0.1 mM, 10 min; for Percent Inhibition of L-Dopa Distribution Volume: competitor (BCH, L-tyrosine, sesamol 1 mM; L-leucine, L-alanine 2 mM; melphalan 0.05 mM); for L-Dopa Distribution Volume in presence of the compound: competitor at the concentration printed in the row
Description: as §1, §2, §4

[5] = test system: SK-MEL-2 cells; test: Antiproliferative effect, neutral red uptake assay, SK-MEL-2 cells; format: cell-based, human
Description: (§5) The SK-MEL-2 and Vero cells (at 5 × 10^4 cells/well) were seeded separately into 96-well plates. After the cells were exposed to the tested compounds (200 µL) for 24 h, neutral red (50 µg/mL) (Sigma-Aldrich, St. Louis, MO, USA) was incorporated into the cells for 2 h. The cells were then washed with ice-cold PBS and lysed using 0.33% HCl in isopropanol. The absorbances of neutral red were measured at 540 nm with a reference wavelength of 660 nm using a UV-microplate reader (Perkin Elmer, Waltham, MA, USA). […] The selective index was calculated from the ratio of the IC50 of Vero and SK-MEL-2 cells.

[6] = test system: Vero cells; test: Antiproliferative effect, neutral red uptake assay, Vero cells; format: cell-based, African green monkey
Description: as §5

[7] = SK-MEL-2, L-dopa 0.1 mM, 10 min
[8] = SK-MEL-2, read-out: Percent Inhibition of Sesamol Distribution Volume
[9] = SK-MEL-2, read-out: Percent Inhibition of L-Dopa Distribution Volume

CC(C)C[C@H](N)C(=O)O [L-leucine, L-Leucine]
Percent Inhibition of L-Dopa Distribution Volume [1, 7]: 75%
L-Dopa Distribution Volume in presence of the compound [1, 7]: 94.1 ± 13.5 µL/mg Protein
Percent Inhibition of Sesamol Distribution Volume [2]: 23%
Sesamol Distribution Volume in presence of the compound [2]: 13.8 ± 1.4 µL/mg Protein
Percent Inhibition of Sesamol Distribution Volume [3]: 50%
Sesamol Distribution Volume in presence of the compound [3]: 11.7 ± 0.7 µL/mg Protein
Percent Inhibition of L-Dopa Distribution Volume [4]: 75%
L-Dopa Distribution Volume in presence of the compound [4]: 39.1 ± 2.3 µL/mg Protein

N[C@@H](Cc1ccc(O)c(O)c1)C(=O)O [L-Dopa, L-dopa]
L-Dopa Distribution Volume, control (no competitor) ([1]; SK-MEL-2, L-dopa 0.1 mM, 10 min, 37 °C): 0% (370.6 ± 13.0)^a µL/mg Protein
Percent Inhibition of Sesamol Distribution Volume [2]: 40% (10.8 ± 2.0)^b,c
inhibition at 1000 µM [3, 8]: 68%
Sesamol Distribution Volume in presence of the compound [3]: 7.4 ± 0.8 µL/mg Protein
L-Dopa Distribution Volume, control (no competitor) ([4]; 37 °C): 0% (155.6 ± 17.8)^a µL/mg Protein

N[C@@H](Cc1ccc(O)cc1)C(=O)O [L-tyrosine]
Percent Inhibition of L-Dopa Distribution Volume [1, 7]: 72%
Percent Inhibition of Sesamol Distribution Volume [2]: 41%
Percent Inhibition of Sesamol Distribution Volume [3]: 75%
Sesamol Distribution Volume in presence of the compound [3]: 5.8 ± 0.2 µL/mg Protein
Percent Inhibition of L-Dopa Distribution Volume [4]: 69%
L-Dopa Distribution Volume in presence of the compound [4]: 48.7 ± 11.0 µL/mg Protein

N[C@@H](Cc1ccc(N(CCCl)CCCl)cc1)C(=O)O [Melphalan, melphalan]
inhibition at 50 µM [1, 9]: 47%
L-Dopa Distribution Volume in presence of the compound [1, 7]: 196.6 ± 20.3 µL/mg Protein
Percent Inhibition of Sesamol Distribution Volume [2]: 35%
Sesamol Distribution Volume in presence of the compound [2]: 11.7 ± 0.7 µL/mg Protein
IC50 ([5]; Homo sapiens, SK-MEL-2, 24 h, read-out: IC50 (cell viability)): 100 µM
Selective Index ([5]; ratio of the IC50 of Vero and SK-MEL-2 cells): 6.0
inhibition at 50 µM [3, 8]: 60%
Sesamol Distribution Volume in presence of the compound [3]: 9.4 ± 0.7 µL/mg Protein
IC50 ([6]; Chlorocebus sabaeus, Vero, 24 h, read-out: IC50 (cell viability)): 600 ± 300 µM
Percent Inhibition of L-Dopa Distribution Volume [4]: 39%
L-Dopa Distribution Volume in presence of the compound [4]: 95.5 ± 11.2 µL/mg Protein

NC1(C(=O)O)CC2CCC1C2 (stereo not drawn) [BCH, 2-Amino-2-norbornanecarboxylic acid]
Percent Inhibition of L-Dopa Distribution Volume [1, 7]: 82%
L-Dopa Distribution Volume in presence of the compound [1, 7]: 67.3 ± 14.0 µL/mg Protein
Percent Inhibition of Sesamol Distribution Volume [2]: 42%
Sesamol Distribution Volume in presence of the compound [2]: 10.4 ± 1.9 µL/mg Protein
cytotoxicity compared to untreated cells ([5]; SK-MEL-2 cells, BCH 1 mM): no cytotoxicity
Percent Inhibition of Sesamol Distribution Volume [3]: 55%
Sesamol Distribution Volume in presence of the compound [3]: 10.3 ± 0.9 µL/mg Protein
cytotoxicity compared to untreated cells ([6]; Vero cells, BCH 1 mM): no cytotoxicity
Percent Inhibition of L-Dopa Distribution Volume [4]: 69%
L-Dopa Distribution Volume in presence of the compound [4]: 47.9 ± 3.7 µL/mg Protein

C[C@H](N)C(=O)O [L-Alanine, L-alanine]
L-Dopa Distribution Volume in presence of the compound [1, 7]: 121.2 ± 3.6 µL/mg Protein
inhibition at 2000 µM [1, 9]: 67%
Percent Inhibition of Sesamol Distribution Volume [2]: 25%
Sesamol Distribution Volume in presence of the compound [2]: 13.3 ± 2.0 µL/mg Protein
inhibition at 2000 µM [3, 8]: 44%
Sesamol Distribution Volume in presence of the compound [3]: 13.1 ± 0.3 µL/mg Protein
Percent Inhibition of L-Dopa Distribution Volume [4]: 35%
L-Dopa Distribution Volume in presence of the compound [4]: 101.3 ± 4.0 µL/mg Protein
